Key:
[1] = system: mice given doxorubicin (DOX); experiment: Survival of mice (percent survival over 15 days) after doxorubicin, with or without prior prostaglandin; conditions: n=16
Protocol: FIG. 1 is a graph illustrating percent survival of mice over 15 days as a function of the time interval (in hours) between the administration of misoprostol and the subsequent administration of doxorubicin. (The two curves represent duplicate experiments; 12 animals per experiment.)
FIG. 2 is a graph illustrating the percent survival of mice over 15 days following the administration of 0.5 mg of doxorubicin (open circles) and mice given 40 μg of misoprostol 2 hours before administration of 0.5 mg of doxorubicin (filled circles). (N=16 for each group).
FIG. 3 is a graph illustrating the percent survival of mice over 15 days following the administration of 0.75 mg of doxorubicin (open circles) and mice given 40 μg of misoprostol 2 hours before administration of 0.75 mg of doxorubicin (filled circles). (N=16 for each group).
Mortality of mice is a measure of PG-induced protection from death due to severe normal tissue injury inflicted by chemotherapy agents.
This assay was accomplished by injecting intraperitoneally (IP) separate groups of mice with a range of doses of chemotherapeutic agents. […] In some groups of mice, longevity was recorded by plotting the number of animals remaining alive (percent survival) versus time following the administration of the chemotherapeutic agent.
PG-induced protection from the toxic chemotherapeutic agents was measured by subcutaneous (SC) injection of the PG at various times prior to or after the IP administration of the chemotherapeutic agent. […] The time interval was varied from 15 minutes to 5 hours. The two curves represent two separate experiments with 20 mice in each experiment. The "0" time point is the percentage of mice that survived 15 days after administration of doxorubicin alone.

[2] = system: mice given 5-fluorouracil; experiment: Survival of mice after 12.5 mg of 5-fluorouracil, with or without prior misoprostol; type: in vivo; conditions: 40 μg misoprostol 2 hours before 12.5 mg of 5-fluorouracil; FIG. 4
Protocol: The toxicity of 12.5 mg of 5-fluorouracil alone to mice and the effectiveness of 40 μg of misoprostol given 2 hours prior to administration of 5-fluorouracil to protect from death due to 5-fluorouracil is shown in FIG. 4.

[3] = system: mice given graded doses of doxorubicin (DOX); experiment: DOX dose response: dose killing 50% of the mice within 15 days, alone or after PG or WR-2721; type: in vivo; conditions: 40 μg misoprostol SC 2 hours before graded doses of DOX; death within 15 days; FIG. 5
Protocol: The open triangle is data of a group of 10 mice given WR-2721, 30 minutes before administration of 0.75 mg of doxorubicin. (The lines are computer fit spline curves through the data; n=24 per data point on each curve).
(The lines are computer fit spline curves through the data; n=8 per data point for each of the PG-treated groups and n=24 for the data points of mice treated only with doxorubicin).
It was observed that all acute deaths due to DOX treatment alone occurred before day 15 following DOX administration. Subsequently, the parameter of death within 15 days was used to investigate the DOX dose response administered IP alone or 2 hours after 40 μg of misoprostol was given subcutaneously (sc). In this study, a dose of about 0.5 mg of DOX/average 30 gram mouse, killed 50% of the DOX treated mice (see FIG. 5).
A comparison of PG-induced protection was made to that of protection by WR-2721; an agent reported to protect from some chemotherapeutic agents. […] Two other PGs representing different structural prostaglandins than misoprostol were also investigated for their effectiveness in protecting mice from mortality resulting from administration of graded doses of DOX.

[4] = system: white blood cells (WBCs) in the peripheral circulation; experiment: WBC counts and differential counts in peripheral blood of DOX treated mice; type: in vivo
Protocol: FIG. 7 is a graph illustrating the protective effect of misoprostol (given 2 hours before doxorubicin) on WBC counts compared to the effect of doxorubicin alone on WBC counts as function of time (in days). (The numbers 1 and 2 are duplicate studies.)
Death within 15 days of DOX treatment alone is most likely associated with bone marrow injury. […] DOX, therefore, appears to not only reduce the total WBC, but has a particularly marked effect on lymphocytes.

hair follicles = experiment: Hair count / hair loss (alopecia) caused by chemotherapeutic agents, 5 daily treatments; type: in vivo, mice; conditions: 5 days
Protocol: Panel C is a representation of a photomicrograph of an animal given 40 μg of misoprostol, 2 hours before the 0.1 mg daily dose of doxorubicin given each day for 5 days.
(Data are the means of 6 mice (2 fields/mouse)±1 SEM.)
Amount of Hair Loss as a Measure of PG-induced Protection from Alopecia caused by Chemotherapeutic Agents.
One of the side effects of chemotherapy in cancer patients is hair loss or alopecia. Studies were conducted to measure a possible protective effect of PGs from alopecia caused by chemotherapeutic agents. […] The hairs on the rumps of mice (n=4/group) were plucked to induce a growth or anagen cycle within hair follicles which continues for about 18 days. […] Control groups (n=4) received no treatment or misoprostol alone.

hair medullary cells = experiment: Number of hair medullary cells four days after a single dose of chemotherapeutic agent, with or without misoprostol; type: in vivo, CF1 mice
Protocol: FIG. 13 is a representation of photographs of shafts of hair showing a single line of medullary cells in control mice (Panel A) and in mice 4 days after they were given a single dose of 0.3 mg of VP-16-213 (Panel B).
Number of Hair Medullary Cells as a Measure of Protection from Injury caused by Chemotherapeutic Agents.
The shafts of hair in CF1 mice contain usually a single line of about 50±1 medullary cells. These cells are very sensitive to cytotoxic agents (see Potten, C. S., Geng, L., and Taylor, P., Hair Medullary Cell Counts: a Simple and Sensitive Indicator of Radiation Exposure. Int. J Radiat. Biol., 57:13-21, 1990). Single doses of cytotoxic chemotherapeutic agents greatly reduce the number of medullary cells which reach a nadir at 4 days after administration of the agent. This cell system has been used for the evaluation of misoprostol-induced protection from several chemotherapeutic agents.
CF1 mice had hair from an area of their rump plucked to induce anagen growth as described in Example 2 above. […] In separate groups, mice received misoprostol (40 μg/average 30 g mouse) either subcutaneously or applied topically 2 hours before each of the chemotherapeutic agents listed above. Untreated controls were used since it has been previously determined that water, or 2% EtOH in water, or phosphate buffer at pH=6.8 (the vehicles for the all agents used) had no influence on the cell counts compared to untreated controls. Twenty-five hairs from each animal of each group were dissected from Feulgen stained samples taken from the mice 4 days after treatment.
The number of medullary cells was averaged (n=4) for each treatment group and the results for all chemotherapeutic agents tested to date are presented in Table I.

CCCCC(C)(O)C/C=C/[C@H]1[C@H](O)CC(=O)[C@@H]1CCCCCCC(=O)OC (mixture of isomers) [misoprostol, (±)(16RS)-15-deoxy-16-hydroxy-16-methyl prostaglandin E1, methyl ester]
percent still alive by day 15, misoprostol before DOX ([1]; 40 μg misoprostol 2 hours before 0.75 mg of DOX, FIG. 3): about 85%
percent survival after 15 days, misoprostol before DOX ([1]; 40 μg misoprostol SC 2 hours before 0.5 mg of doxorubicin, FIG. 2): 100%
protection of mice from death due to 5-fluorouracil [2]: effective in protecting mice from damaging effects of 5-fluorouracil
DOX dose required to kill 50% of the population of mice, after misoprostol [3]: about 1.0 mg of DOX/average 30 gram mouse
percentage of lymphocytes, misoprostol before DOX ([4]; 40 μg of misoprostol 2 hours before 0.5 mg of DOX, differential counts of peripheral blood): greater than 30%
WBC counts, misoprostol before DOX ([4]; misoprostol 40 μg/30 gram mouse 2 hours before DOX (0.5 mg/30 gram mouse), FIG. 7): remained near control levels
number of hairs, misoprostol + DOX (hair follicles; 40 μg misoprostol SC 2 hours before each daily 0.1 mg DOX, FIG. 9): 213±7.8 hairs per 4.42 sq. mm
number of hairs, misoprostol + CTX (hair follicles; 40 μg misoprostol SC 2 hours before each daily 1.0 mg cytoxan, FIG. 10): 222+5.5 hairs per 4.42 sq. mm
Number of Medullar Cells ± 1 SEM, misoprostol subcutaneously (hair medullary cells; 40 μg SC 2 hrs before 5 FU (1.0 mg)): 37.4 ± 5.0
Number of Medullar Cells ± 1 SEM, misoprostol subcutaneously (hair medullary cells; 40 μg SC 2 hrs before ARA-C (8 mg)): 40.1 ± 0.7
Number of Medullar Cells ± 1 SEM, misoprostol subcutaneously (hair medullary cells; 40 μg SC 2 hrs before Bleomycin (0.05 mg)): 27.9 ± 1.2
Number of Medullar Cells ± 1 SEM, misoprostol subcutaneously (hair medullary cells; 40 μg SC 2 hrs before CTX (1 mg)): 33.1 ± 1.3
Number of Medullar Cells ± 1 SEM, misoprostol subcutaneously (hair medullary cells; 40 μg SC 2 hrs before Carboplatin (1.0 mg)): 31.2 ± 2.4
Number of Medullar Cells ± 1 SEM, misoprostol subcutaneously (hair medullary cells; 40 μg SC 2 hrs before Cisplatin (0.25 mg)): 14.3 ± 0.4
Number of Medullar Cells ± 1 SEM, misoprostol subcutaneously (hair medullary cells; 40 μg SC 2 hrs before DOX (0.3 mg)): 30.0 ± 1.1
Number of Medullar Cells ± 1 SEM, misoprostol subcutaneously (hair medullary cells; 40 μg SC 2 hrs before HU (10 mg)): 38.9 ± 0.7
Number of Medullar Cells ± 1 SEM, misoprostol subcutaneously (hair medullary cells; 40 μg SC 2 hrs before Methotrexate (0.2 mg)): 50.6 ± 0.6
Number of Medullar Cells ± 1 SEM, misoprostol subcutaneously (hair medullary cells; 40 μg SC 2 hrs before Mitomycin C (0.01 mg)): 38.2 ± 1.9
Number of Medullar Cells ± 1 SEM, misoprostol subcutaneously (hair medullary cells; 40 μg SC 2 hrs before Taxol (0.6 mg)): 26.0 ± 3.5
Number of Medullar Cells ± 1 SEM, misoprostol subcutaneously (hair medullary cells; 40 μg SC 2 hrs before VP-16-213 (0.3 mg)): 34.4 ± 1.1
Number of Medullar Cells ± 1 SEM, misoprostol topical (hair medullary cells; 40 μg topical 2 hrs before ARA-C (8 mg)): 43.1 ± 1.7
Number of Medullar Cells ± 1 SEM, misoprostol topical (hair medullary cells; 40 μg topical 2 hrs before Bleomycin (0.05 mg)): 28.1 ± 1.0
Number of Medullar Cells ± 1 SEM, misoprostol topical (hair medullary cells; 40 μg topical 2 hrs before CTX (1 mg)): 31.5 ± 2.2
Number of Medullar Cells ± 1 SEM, misoprostol topical (hair medullary cells; 40 μg topical 2 hrs before DOX (0.3 mg)): 27.0 ± 1.3
Number of Medullar Cells ± 1 SEM, misoprostol topical (hair medullary cells; 40 μg topical 2 hrs before HU (10 mg)): 40.7 ± 1.0
Number of Medullar Cells ± 1 SEM, misoprostol topical (hair medullary cells; 40 μg topical 2 hrs before Methotrexate (0.2 mg)): 46.7 ± 2.2
Number of Medullar Cells ± 1 SEM, misoprostol topical (hair medullary cells; 40 μg topical 2 hrs before VP-16-213 (0.3 mg)): 33.0 ± 1.6
lack of protection of medullary cells (hair medullary cells; ARA-C, bleomycin, HU (misoprostol given systemically), cisplatin, carboplatin or 5-FU treated mice): did not protect medullary cells
